Like-named read-outs stand apart in the source and are kept apart here.
Columns and labels:
BRM = BRM (Homo sapiens, UniProt P51531); test: ATPase catalytic activity assay of BRM (ADP-Glo); format: biochemical; settings: for IC50: read-out: BRM IC50 (μM)*
Experimental: (§1) The ATPase catalytic activity of BRM or BRG-1 was measured by the in vitro biochemical assay using ADP-Glo™ (Promega, V9102). The ADP-Glo™ kinase assay is performed in two steps once the reaction is complete. The first step is to deplete any unconsumed ATP in the reaction. The second step is to convert the reaction product ADP to ATP, which will be utilized by the luciferase to generate luminesce and be detected by a luminescence reader, such as Envision.
(§2) Then following addition of 5 μL of ADP-Glo™ Reagent provided in the kit, the reaction incubates at room temperature for 40 minutes. Then 10 μL of Kinase Detection Reagent provided in the kit is added to convert ADP to ATP, and the reaction incubates at room temperature for 60 minutes. Finally, luminescence measurement is collected with a plate-reading luminometer, such as Envision.
as §1, with “The” for “The ATPase catalytic activity of BRM or BRG-1 was measured by the in vitro biochemical assay using ADP-Glo™ (Promega, V9102). The”

BRG-1 = BRG-1 (Homo sapiens, UniProt P51532); test: ATPase catalytic activity assay of BRG-1 (ADP-Glo); format: biochemical; settings: ATPase catalytic activity, ADP-Glo; for IC50: read-out: BRG1 IC50 (μM)*; for Emax: read-out: BRG1 Max % Inhibition
Experimental: as §1, §2
as §1, with “The” for “The ATPase catalytic activity of BRM or BRG-1 was measured by the in vitro biochemical assay using ADP-Glo™ (Promega, V9102). The”

Chain of BRM (P51531 whole entry): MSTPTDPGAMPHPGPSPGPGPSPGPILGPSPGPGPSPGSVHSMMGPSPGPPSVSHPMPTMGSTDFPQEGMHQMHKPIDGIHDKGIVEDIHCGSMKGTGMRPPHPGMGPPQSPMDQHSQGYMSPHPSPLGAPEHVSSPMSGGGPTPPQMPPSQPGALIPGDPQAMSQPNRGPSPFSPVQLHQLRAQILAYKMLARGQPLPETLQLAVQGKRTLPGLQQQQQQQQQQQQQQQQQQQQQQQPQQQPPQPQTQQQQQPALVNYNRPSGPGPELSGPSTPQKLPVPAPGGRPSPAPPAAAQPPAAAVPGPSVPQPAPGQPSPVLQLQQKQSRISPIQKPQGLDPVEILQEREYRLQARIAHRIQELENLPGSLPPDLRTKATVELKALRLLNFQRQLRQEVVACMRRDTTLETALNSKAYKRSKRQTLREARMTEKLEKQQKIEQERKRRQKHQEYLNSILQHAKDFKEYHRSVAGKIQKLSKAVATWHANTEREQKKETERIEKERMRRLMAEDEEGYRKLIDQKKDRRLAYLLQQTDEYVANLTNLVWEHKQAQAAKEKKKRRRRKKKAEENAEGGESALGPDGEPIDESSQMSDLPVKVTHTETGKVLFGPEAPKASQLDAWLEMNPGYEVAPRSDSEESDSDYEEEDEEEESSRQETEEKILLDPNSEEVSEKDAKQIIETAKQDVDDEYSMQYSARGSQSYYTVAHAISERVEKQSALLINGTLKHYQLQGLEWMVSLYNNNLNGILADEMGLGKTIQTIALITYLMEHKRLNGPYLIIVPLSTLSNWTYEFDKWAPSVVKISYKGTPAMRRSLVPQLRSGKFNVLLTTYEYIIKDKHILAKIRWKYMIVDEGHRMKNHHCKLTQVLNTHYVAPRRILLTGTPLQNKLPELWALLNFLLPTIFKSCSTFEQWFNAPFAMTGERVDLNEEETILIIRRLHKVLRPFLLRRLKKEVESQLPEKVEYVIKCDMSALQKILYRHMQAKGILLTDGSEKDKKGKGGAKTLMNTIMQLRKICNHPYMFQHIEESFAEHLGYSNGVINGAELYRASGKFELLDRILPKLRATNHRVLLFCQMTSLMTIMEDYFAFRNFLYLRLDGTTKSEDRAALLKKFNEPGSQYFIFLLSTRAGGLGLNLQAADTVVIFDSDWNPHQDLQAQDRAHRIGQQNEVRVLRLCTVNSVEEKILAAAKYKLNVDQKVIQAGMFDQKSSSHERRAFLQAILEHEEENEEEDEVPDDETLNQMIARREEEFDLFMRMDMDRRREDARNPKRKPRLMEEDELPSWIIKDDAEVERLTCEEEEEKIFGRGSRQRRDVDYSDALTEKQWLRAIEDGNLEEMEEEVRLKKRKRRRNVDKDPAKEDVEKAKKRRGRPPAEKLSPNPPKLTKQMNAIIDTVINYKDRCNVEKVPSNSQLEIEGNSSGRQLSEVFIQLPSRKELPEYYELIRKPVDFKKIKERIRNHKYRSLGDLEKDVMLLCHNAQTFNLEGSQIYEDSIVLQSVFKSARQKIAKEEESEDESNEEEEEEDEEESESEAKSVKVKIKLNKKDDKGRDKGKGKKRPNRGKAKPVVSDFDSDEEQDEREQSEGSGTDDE
Chain of BRG-1 (P51532 whole entry): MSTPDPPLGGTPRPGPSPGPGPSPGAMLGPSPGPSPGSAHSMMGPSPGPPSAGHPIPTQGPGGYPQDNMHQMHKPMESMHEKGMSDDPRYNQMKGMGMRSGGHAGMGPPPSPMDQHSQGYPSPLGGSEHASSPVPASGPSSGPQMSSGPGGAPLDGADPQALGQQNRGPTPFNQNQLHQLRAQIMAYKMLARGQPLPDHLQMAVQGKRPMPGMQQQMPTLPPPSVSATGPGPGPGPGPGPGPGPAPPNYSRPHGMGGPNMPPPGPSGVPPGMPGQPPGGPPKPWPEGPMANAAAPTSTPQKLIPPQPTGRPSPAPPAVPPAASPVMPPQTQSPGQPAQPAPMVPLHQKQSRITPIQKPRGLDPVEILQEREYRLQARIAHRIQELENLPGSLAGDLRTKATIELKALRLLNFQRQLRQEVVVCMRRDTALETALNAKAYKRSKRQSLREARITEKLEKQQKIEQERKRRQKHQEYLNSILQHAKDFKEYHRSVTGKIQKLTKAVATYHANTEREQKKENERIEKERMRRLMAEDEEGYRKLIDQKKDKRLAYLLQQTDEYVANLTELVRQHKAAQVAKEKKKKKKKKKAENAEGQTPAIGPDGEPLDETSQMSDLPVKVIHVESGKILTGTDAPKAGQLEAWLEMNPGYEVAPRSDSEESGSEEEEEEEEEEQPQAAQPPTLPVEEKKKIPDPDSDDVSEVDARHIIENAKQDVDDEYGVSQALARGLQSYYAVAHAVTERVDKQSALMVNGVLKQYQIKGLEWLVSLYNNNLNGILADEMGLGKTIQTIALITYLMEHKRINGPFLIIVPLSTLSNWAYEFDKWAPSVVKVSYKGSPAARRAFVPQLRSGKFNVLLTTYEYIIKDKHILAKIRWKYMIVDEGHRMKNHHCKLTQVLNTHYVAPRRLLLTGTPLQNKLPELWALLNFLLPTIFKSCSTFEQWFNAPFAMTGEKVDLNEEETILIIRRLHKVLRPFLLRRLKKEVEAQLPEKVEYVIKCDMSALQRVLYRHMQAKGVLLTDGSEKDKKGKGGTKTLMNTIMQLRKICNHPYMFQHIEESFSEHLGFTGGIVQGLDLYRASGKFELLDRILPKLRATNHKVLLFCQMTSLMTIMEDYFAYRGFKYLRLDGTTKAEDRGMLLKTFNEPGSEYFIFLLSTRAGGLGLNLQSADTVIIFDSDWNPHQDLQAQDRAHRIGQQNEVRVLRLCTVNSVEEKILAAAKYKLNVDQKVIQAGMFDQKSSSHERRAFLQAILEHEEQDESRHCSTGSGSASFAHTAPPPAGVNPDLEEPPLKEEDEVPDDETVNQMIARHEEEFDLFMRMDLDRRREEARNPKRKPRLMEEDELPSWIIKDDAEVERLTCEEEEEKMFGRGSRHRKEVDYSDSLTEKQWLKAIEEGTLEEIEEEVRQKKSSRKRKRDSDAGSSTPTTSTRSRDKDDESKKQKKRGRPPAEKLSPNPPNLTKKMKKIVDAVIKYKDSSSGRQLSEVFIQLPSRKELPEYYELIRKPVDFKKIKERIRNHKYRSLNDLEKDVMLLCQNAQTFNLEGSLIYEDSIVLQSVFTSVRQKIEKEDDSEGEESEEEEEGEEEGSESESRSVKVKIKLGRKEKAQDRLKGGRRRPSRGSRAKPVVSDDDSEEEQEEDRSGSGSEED

BRM Max % Inhibition (BRM) [%] | IC50 (BRM) [µM] | IC50 (BRG-1) [µM] | Emax (BRG-1) [%] | BRM Max % Inhibition (BRM; 30 nM BRM, 400 μM ATP) [%] | IC50 (BRM; 30 nM BRM, 400 μM ATP) [µM] | IC50 (BRG-1; 30 nM BRG-1, 400 μM ATP) [µM] | Emax (BRG-1; 30 nM BRG-1, 400 μM ATP) [%] | Compound
>90 | 0.1 to 1 | 1 to 5 | > 90 |  |  |  |  | C[C@@H]1CN(c2cccc(-c3csc(NC(=O)CNC(=O)c4ccc5c(c4)C(C)(CO)COC5)n3)c2)C[C@H](C)O1 (stereo in doubt) [Compound 373, (S)-N-(2-((4-(3-((cis)-2,6-dimethylmorpholino)phenyl)thiazol-2-yl)amino)-2-oxoethyl)-4-(hydroxymethyl)-4-methylisochromane-6-carboxamide]
>95 | 0.1 to 1 | 1 to 5 | > 95 |  |  |  |  | CC1(C#N)CCOc2ccc(C(=O)NCC(=O)Nc3nc(-c4cccc([C@H]5CC5(F)F)n4)cs3)cc21 (stereo in doubt) [Compound 378, (S)-4-cyano-N-(2-((4-(6-((R)-2,2-difluorocyclopropyl)pyridin-2-yl)thiazol-2-yl)amino)-2-oxoethyl)-4-methylchromane-6-carboxamide]
>85 | 0.1 to 1 | 1 to 5 | > 85 |  |  |  |  | CC1(C#N)CCOc2ccc(C(=O)NCC(=O)Nc3nc(-c4cccc([C@@H]5CC5(F)F)n4)cs3)cc21 (stereo in doubt) [Compound 380, (S)-4-cyano-N-(2-((4-(6-((S)-2,2-difluorocyclopropyl)pyridin-2-yl)thiazol-2-yl)amino)-2-oxoethyl)-4-methylchromane-6-carboxamide]
 |  |  |  | >95 | 0.1 to 1 | 1 to 5 | > 95 | C[C@@H]1CN(c2cccc(-c3csc(NC(=O)CNC(=O)c4cccc([C@@]5(C)COC[C@@H]5O)c4)n3)n2)C[C@H](C)O1 (stereo in doubt) [Compound 413, N-(2-((4-(6-((cis)-2,6-dimethylmorpholino)pyridin-2-yl)thiazol-2-yl)amino)-2-oxoethyl)-3-((cis)-4-hydroxy-3-methyltetrahydrofuran-3-yl)benzamide]
 |  |  |  | >95 | 0.1 to 1 | 0.1 to 1 | > 95 | C[C@H](NC(=O)c1ccc2c(c1)C(C)(CO)CC2)C(=O)Nc1nc(-c2cccc(N3CCC3)c2)cs1 (stereo in doubt) [Compound 414, (S)-N-((S)-1-((4-(3-(azetidin-1-yl)phenyl)thiazol-2-yl)amino)-1-oxopropan-2-yl)-3-(hydroxymethyl)-3-methyl-2,3-dihydro-1H-indene-5-carboxamide]
 |  |  |  | >95 | < 0.1 | 0.1 to 1 | > 95 | CC1(C#N)CCOc2ccc(C(=O)NCC(=O)Nc3nc(-c4cccc(N5CCC5)c4)cs3)cc21 (stereo in doubt) [Compound 416, (S)-N-(2-((4-(3-(azetidin-1-yl)phenyl)thiazol-2-yl)amino)-2-oxoethyl)-4-cyano-4-methylchromane-6-carboxamide]
 |  |  |  | >95 | < 0.1 | 0.1 to 1 | > 95 | C[C@@H]1CN(c2cccc(-c3csc(NC(=O)CNC(=O)c4ccc5c(c4)C(C)(C#N)CO5)n3)c2)C[C@H](C)O1 (stereo in doubt) [Compound 417, (R)-3-cyano-N-(2-((4-(3-((cis)-2,6-dimethylmorpholino)phenyl)thiazol-2-yl)amino)-2-oxoethyl)-3-methyl-2,3-dihydrobenzofuran-5-carboxamide]
 |  |  |  | >95 | < 0.1 | < 0.1 | > 95 | C[C@@H]1CN(c2cccc(-c3csc(NC(=O)CNC(=O)c4ccc5c(c4)C(C)(C#N)COC5)n3)n2)C[C@H](C)O1 (stereo in doubt) [Compound 420, (R)-4-cyano-N-(2-((4-(6-((cis)-2,6-dimethylmorpholino)pyridin-2-yl)thiazol-2-yl)amino)-2-oxoethyl)-4-methylisochromane-6-carboxamide]

— US12685735B2 (Foghorn Therapeutics Inc., priority 2020, dated 2026)
